Where two headings read alike, the source gives them in different places. Bridge positions count the residues as written; N and C are the ends. Peptide text beside a SMILES is read from it.
What was measured:
NRP1 b1 [1] = biological target: T1, NRP1 b1 (Homo sapiens, UniProt O14786); test: FP saturation binding / protein titration (dynamic range); conditions: for Dynamic window (mP): FP, probe + NRP1‐b1 vs probe only, probe and NRP‐b1 conc per probe as in Table 2; for Kd: KD derived from the 50% signal maximum
T1 construct: Ligands were evaluated against the NRP1‐b1 domain
T1 sequence (O14786 275-424 limits assumed): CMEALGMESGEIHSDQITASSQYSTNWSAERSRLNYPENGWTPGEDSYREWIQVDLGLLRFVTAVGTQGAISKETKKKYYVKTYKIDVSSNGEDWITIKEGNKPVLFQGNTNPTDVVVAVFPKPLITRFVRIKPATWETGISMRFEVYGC
Method: Initial experiments were performed using PBS‐P buffer with 3% DMSO in a final volume of 80 μl. The reaction plates or tubes were kept on ice during pipetting.
Saturation binding: dynamic range and protein titration experiments were performed at probe concentrations selected with guidance from in‐house SPR analysis, literature KD of the untagged compound, and an FP technical resource guide (Invitrogen, 2006). The NRP‐b1 concentrations ranged from 10 nM to 30 μM.

NRP1‐b1 domain = biological target: T2, NRP1‐b1 domain (Homo sapiens, UniProt O14786); test: SPR binding of fluorescent probes to immobilised NRP1-b1; conditions: for Kd: NRP1‐b1 on CM5 chip, 3% DMSO in PBS‐P, 1:1 binding model, read-out: KD (μM, affinity); for Observed Rmax (% of theoretical): experimentally observed Rmax as percentage of theoretical Rmax (quality control)
T2 construct: Ligands were evaluated against the NRP1‐b1 domain
T2 sequence (O14786 275-424 limits assumed): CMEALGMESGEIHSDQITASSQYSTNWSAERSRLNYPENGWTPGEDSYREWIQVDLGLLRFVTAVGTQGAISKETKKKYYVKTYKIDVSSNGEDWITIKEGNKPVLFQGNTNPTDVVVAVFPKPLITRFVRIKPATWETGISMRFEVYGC
Method: All SPR analysis was performed on a BIAcore T200 system using series S CM5 sensor chips. The […] SPR is effectively a stop‐flow instrument, and dissociation from the immobilized protein is initiated by the absence of analyte (ligand) when buffer alone is perfused, this setup allows the determination of on and off rates and equilibrium binding constants. Relatively high DMSO concentrations are normal for SPR experiments to limit solubility problems and minimize nonspecific aggregation. Extensive DMSO controls are included and automatically subtracted from the sensorgrams. Sensorgrams were double referenced by subtracting the response on a reference flow cell and a blank sample. Ligands were evaluated against the NRP1‐b1 domain. NRP1‐b1 was covalently attached to a CM5 chip via amine coupling (Powell et al., 2018) with a surface density of 2,000–3,000 RU. Binding of novel fluorescent probes (0.4–100 μM) were analyzed by multicycle sequential injections (30–120 s association time) followed by undisturbed dissociation (30–60 s). A regeneration step was not used. Peptide stocks were dissolved in dimethyl sulfoxide (DMSO), and the final sample solutions for kinetic affinity experiments contained 3% DMSO in 1× phosphate‐buffered saline P20 buffer (PBS‐P, Cat no 28995084, GE Healthcare Ltd.). DMSO solvent effects were corrected for with eight calibration solutions ([…] in PBS‐P). Equilibrium constants (KD) were calculated using either kinetic or affinity models, assuming simple 1:1 (Langmuir) binding. Data processing and analysis were performed using BIAevaluation and OriginPro software. The theoretical Rmax (the maximal feasible signal between a ligand—analyte pair) for each compound/protein pair was calculated using Scheme 1 (Marquart, 2017).
The experimentally observed Rmax was then calculated as a percentage of the theoretical Rmax as a quality control measure.

NRP1 [2] = conditions: NRP1 inhibition using bt‐VEGF165 binding; ref Jia et al., 2006; read-out: Literature IC50; cited from earlier work
NRP1 b1 [3] = biological target: T1, NRP1 b1; test: FP competition experiment with DS108 probe; type: binding; conditions: for IC50: FP competition, DS108 0.75 μM, NRP1 b1 7.5 μM, PBS‐P buffer; for Ki: calculated from FP competition IC50 using kinetic equations (Nikolovska‐Coleska et al., 2004)
Method: Competition experiments: FP samples were prepared in the following order—ligand in PBS‐P buffer (20 μl), NRP1‐b1 protein ([…], 20 μl) in PBS‐P buffer, and DS108 probe (1,500 nM, 40 μl) in PBS‐P buffer. FP was measured and normalized to experiment controls (buffer + probe, buffer + probe + protein) using a BMG Labtech PHERAstar® plate reader (filter settings: 485 nm [excitation] and 520 nm [emission]). Background FP was blanked using a PBS‐P buffer only control.
Data processing: raw data were processed using OriginPro curve fitting software to obtain the IC50s and error values shown. A dose–response curve fitting model was utilized for the competition experiments. A web based IC50‐to‐Ki converter that computes Ki values from experimentally determined IC50 values was employed (Cer, Mudunuri, Stephens, & Lebeda, 2009) (https://bioinfo-abcc.ncifcrf.gov/IC50_Ki_Converter/index.php) Each experiment was conducted in triplicate and repeated two times. The statistical reproducibility of this assay was evaluated using the z factor equation (Scheme 2).

NRP1 [4] = system: NRP1; parameters: method as in Powell et al., 2018; conditions: ref Powell et al., 2018; cited from earlier work
5-Flu-RPARPAR [5] = test: SPR
5-Flu-RPARPAR [6] = biological target: 5-Flu-RPARPAR

## RPARPAR [reference compound]
NRP1 b1 [1]
  Dynamic window (mP): 22.6 mP
NRP1 b1 [1]; […]
  Kd: 1.88 ± 1.4 µM
NRP1‐b1 domain
  Kd: 69 ± 22 µM
  Observed Rmax (% of theoretical): 60.61%

## CC(C)C[C@@H]1NC(=O)[C@H](CCC(N)=O)NC(=O)[C@H](CCCNC(=N)N)NC(=O)[C@H](C)NC(=O)[C@H](CCCCN)NC(=O)[C@@H]2CSSC[C@@H](C(=O)N[C@@H](CC(=O)O)C(=O)N[C@@H](CCCCN)C(=O)N3CCC[C@H]3C(=O)N[C@@H](CCCNC(=N)N)C(=O)N[C@@H](CCCNC(=N)N)C(=O)O)NC(=O)[C@H](CCCNC(=N)N)NC(=O)[C@H](CSSC[C@H](NC(=O)[C@@H](N)CO)C(=O)N[C@@H](CCCCN)C(=O)N[C@@H](CC(N)=O)C(=O)N[C@@H]([C@@H](C)O)C(=O)N[C@@H](CC(=O)O)C(=O)N[C@@H](CO)C(=O)N[C@@H](CCCNC(=N)N)C(=O)N2)NC(=O)[C@H]([C@@H](C)O)NC(=O)[C@H](CCCNC(=N)N)NC(=O)[C@H](CCC(=O)O)NC(=O)[C@H](CC(N)=O)NC(=O)[C@H](CC(C)C)NC(=O)[C@H](CCC(=O)O)NC1=O [EG03287] (H-SCKNTDSRCKARQLELNERTCRCDKPRR-OH; disulfide 2-21, 9-23; N-terminus and C-terminus assumed)
NRP1 [2]
  IC50: 1.2 µM
NRP1 b1 [3]
  IC50: 5.77 ± 0.87 µM
  Ki: 2.47 µM

## N=C(N)NCCC[C@H](NC(=O)c1sccc1NS(=O)(=O)c1cc(-c2ccc(CNC(=O)CCOCCOCCOCCOCCOCc3cn(CCCNC(=O)c4ccc5c(c4)C(=O)OC54c5ccc(O)cc5Oc5cc(O)ccc54)nn3)cc2)cc2c1OCC2)C(=O)O [probe 4, (3‐((5‐(4‐(1‐(1‐(3‐(3′,6′‐dihydroxy‐3‐oxo‐3H‐spiro(isobenzofuran‐1,9′‐xanthene)‐5‐carboxamido)propyl)‐1H‐1,2,3‐triazol‐4‐yl)‐17‐oxo‐2,5,8,11,14‐pentaoxa‐18‐azanonadecan‐19‐yl)phenyl)‐2,3‐dihydrobenzofuran)‐7‐sulfonamido)thiophene‐2‐carbonyl)‐L‐arginine]
NRP1 b1 [1]; FP protein titration
  Kd: 0.62 ± 0.098 µM
NRP1 b1 [1]
  Dynamic window (mP): 5.2 mP
NRP1‐b1 domain
  Kd: 3.3 ± 0.2 µM
  Observed Rmax (% of theoretical): 43%

## N=C(N)NCCC[C@H](NC(=O)c1sccc1NS(=O)(=O)c1cc(-c2ccc(CN)cc2)cc2c1OCC2)C(=O)O [EG01377]
NRP1 [4]
  NRP1 antagonistic properties: submicromolar
  selectivity for NRP1 over NRP2 receptor: selective for NRP1
NRP1 b1 [3]
  IC50: 16.8 ± 1.25 µM
  Ki: 7.39 µM

## N=C(N)NCCC[C@H](NC(=O)c1sccc1NS(=O)(=O)c1cc(-c2ccc(CNC(=O)CCOCCOCCOCCNC(=O)c3ccc(-c4c5ccc(=O)cc-5oc5cc(O)ccc45)c(C(=O)O)c3)cc2)cc2c1OCC2)C(=O)O [probe 3, (S)‐5‐((1‐(4‐(7‐(N‐(2‐((1‐carboxy‐4‐guanidinobutyl)carbamoyl)thiophen‐3‐yl)sulfamoyl)‐2,3‐dihydrobenzofuran‐5‐yl)phenyl)‐3‐oxo‐6,9,12‐trioxa‐2‐azatetradecan‐14‐yl)carbamoyl)‐2‐(6‐hydroxy‐3‐oxo‐3H‐xanthen‐9‐yl)benzoic acid]
NRP1 b1 [1]; FP protein titration
  Kd: 4.61 ± 0.19 µM
NRP1 b1 [1]
  Dynamic window (mP): 30.7 mP
NRP1‐b1 domain
  Kd: 24.6 ± 6.3 µM
  Observed Rmax (% of theoretical): 77%

B1: NRP1 b1 b1 domain (protein)
chain: FKCMEALGMESGEIHSDQITASSQYSTNWSAERSRLNYPENGWTPGEDSYREWIQVDLGLLRFVTAVGTQGAISKETKKKYYVKTYKIDVSSNGEDWITIKEGNKPVLFQGNTNPTDVVVAVFPKPLITRFVRIKPATWETGISMRFEVYGCKIT
5-Flu-RPARPAR [5]
  Kd: 69 µM
5-Flu-RPARPAR [6]
  Kd: 1.88 µM

Reference: paper PMC7317715, “Discovery of a novel fluorescent chemical probe suitable for evaluation of neuropilin‐1 binding of small molecules” (Drug Development Research, 2020)
